Test systems include CD8 cells; Vb6+ CD8 clone; Vb6-CD8 clone.
Holding throughout (format): cell-based, C57BL/6 mice

Consider H-SVIGFIQRM-OH [SEQ ID NO: 3], for which the “TNF-α and IFN-γ expression” value in the experiment on CD8 cells is “stimulated TNF-α and IFN-γ expression from nearly as many CD8 cells as did the polyclonal stimulus anti-CD3”.

With “H-VAHSVIGFIQRMFSE-OH [YopE peptide number 14]”, in the experiment on Vb6+ CD8 clone, the “IFN-γ by ELISA” value is reported as “specifically produced IFN-γ” and the “proliferation (3H-thymidine incorporation, stimulation index)” value was “proliferated”. For the same substance, the “response pattern (IFN-γ and proliferation)” value in the experiment on Vb6-CD8 clone is recorded as “identical response pattern”.

(Values after US20130273092A1 (priority 2010, published 2013).)
